The conditions of this series: 101.33 kPa, Liquid; for speed of sound: Sing-around technique in a fixed-path interferometer; for mass density: Vibrating tube method.

Here are results for 5 molecules from the NIST ThermoML archive (doi:10.1016/j.jct.2014.06.030).

Numbers after ± are expanded uncertainties.

With `Cc1ccccc1Cl` [2-chlorotoluene], the speed of sound was determined as 1298.7 ± 1.4 m/s (298.15 K), 1280.7 ± 1.4 m/s (303.15 K) and 1262.7 ± 1.4 m/s (308.15 K). Further, the mass density runs as follows: (298.15 K) 1077.3 ± 1 kg/m3; (303.15 K) 1072.5 ± 1 kg/m3; (308.15 K) 1067.6 ± 1 kg/m3.
As for `CNC=O` [N-methylformamide], the speed of sound turned out to be 1431.6 ± 1.3 m/s (298.15 K), 1417.4 ± 1.3 m/s (303.15 K) and 1402.2 ± 1.3 m/s (308.15 K). The mass density is, setting by setting: (298.15 K) 999 ± 1 kg/m3; (303.15 K) 994.65 ± 1 kg/m3; (308.15 K) 990.3 ± 1 kg/m3.
On to `C1CCCCC1` [cyclohexane], for which the speed of sound turned out to be 1253.6 ± 1.2 m/s (298.15 K), 1229.1 ± 1.2 m/s (303.15 K) and 1205.1 ± 1.2 m/s (308.15 K). Moreover, the mass density is, setting by setting: (298.15 K) 773.94 ± 1 kg/m3; (303.15 K) 769.21 ± 1 kg/m3; (308.15 K) 764.45 ± 1 kg/m3.
On to `CN(C)C=O` [dimethylformamide], for which the speed of sound is, setting by setting: (298.15 K) 1458.5 ± 1.2 m/s; (303.15 K) 1440.2 ± 1.2 m/s; (308.15 K) 1420.8 ± 1.2 m/s. Besides, the mass density runs as follows: (298.15 K) 944.6 ± 1 kg/m3; (303.15 K) 939.83 ± 1 kg/m3; (308.15 K) 935.05 ± 1 kg/m3.
As for `C1CCOCC1` [tetrahydropyran], the speed of sound (298.15 K) turned out to be 1269.8 ± 1.2 m/s, the speed of sound (303.15 K) is 1246.8 ± 1.2 m/s and the speed of sound (308.15 K) is listed as 1224.4 ± 1.2 m/s. Further, the mass density came out at 879.13 ± 1 kg/m3 (298.15 K), 873.99 ± 1 kg/m3 (303.15 K) and 868.83 ± 1 kg/m3 (308.15 K).
